Experimental data taken from paper PMC9841527 (Journal of Medicinal Chemistry, 2022).

Key:
[1] = biological target: DNMT1 (Homo sapiens, UniProt P26358); assay: Selectivity assay, DNMT1; type: biochemical; details: [I] = 10 μM, [SAM] = 5.5 μM, 37 °C
[2] = biological target: T1, G9a (Homo sapiens, UniProt Q96KQ7); assay: Selectivity assay, G9a; type: biochemical; details: compound 10 μM, 3H-SAM 1 μM
T1 sequence (Q96KQ7 1-1210): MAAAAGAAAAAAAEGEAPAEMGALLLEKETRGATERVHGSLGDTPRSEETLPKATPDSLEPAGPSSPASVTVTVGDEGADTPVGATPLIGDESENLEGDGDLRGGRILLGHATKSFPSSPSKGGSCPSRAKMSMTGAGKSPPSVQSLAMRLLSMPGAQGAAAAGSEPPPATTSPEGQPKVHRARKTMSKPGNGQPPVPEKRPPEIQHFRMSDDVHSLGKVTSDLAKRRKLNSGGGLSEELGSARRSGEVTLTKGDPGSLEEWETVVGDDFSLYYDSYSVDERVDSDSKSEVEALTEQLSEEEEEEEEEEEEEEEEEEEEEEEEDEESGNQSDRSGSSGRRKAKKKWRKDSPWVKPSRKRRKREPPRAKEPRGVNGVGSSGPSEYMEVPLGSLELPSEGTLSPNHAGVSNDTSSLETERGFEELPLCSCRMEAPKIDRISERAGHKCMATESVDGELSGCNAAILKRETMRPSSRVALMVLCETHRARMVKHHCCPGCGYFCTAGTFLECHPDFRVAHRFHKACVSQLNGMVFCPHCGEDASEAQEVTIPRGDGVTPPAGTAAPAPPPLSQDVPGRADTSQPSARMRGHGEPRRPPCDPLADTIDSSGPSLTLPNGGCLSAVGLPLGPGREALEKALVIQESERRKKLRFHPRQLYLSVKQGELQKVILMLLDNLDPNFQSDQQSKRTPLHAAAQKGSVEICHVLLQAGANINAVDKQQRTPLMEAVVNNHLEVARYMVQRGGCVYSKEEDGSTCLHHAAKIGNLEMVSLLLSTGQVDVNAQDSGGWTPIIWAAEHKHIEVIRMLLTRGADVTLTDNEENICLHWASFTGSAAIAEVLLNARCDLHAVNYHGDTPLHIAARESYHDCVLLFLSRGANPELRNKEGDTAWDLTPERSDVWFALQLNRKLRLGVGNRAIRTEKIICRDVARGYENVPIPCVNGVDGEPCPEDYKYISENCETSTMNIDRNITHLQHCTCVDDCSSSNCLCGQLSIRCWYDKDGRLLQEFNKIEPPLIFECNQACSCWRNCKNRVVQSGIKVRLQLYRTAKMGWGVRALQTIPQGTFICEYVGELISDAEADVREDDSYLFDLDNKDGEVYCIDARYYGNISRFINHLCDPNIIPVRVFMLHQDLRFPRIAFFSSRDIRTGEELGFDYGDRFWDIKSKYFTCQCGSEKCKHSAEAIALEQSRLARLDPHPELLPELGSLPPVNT

[3] = biological target: T2, A1 adenosine receptor (A1AR) (Homo sapiens, UniProt P30542); assay: A1AR agonist radioligand binding assay; details: compound 10 μM, [3H]CCPA 1 nM, transfected CHO cell membranes
T2 sequence (P30542 1-326): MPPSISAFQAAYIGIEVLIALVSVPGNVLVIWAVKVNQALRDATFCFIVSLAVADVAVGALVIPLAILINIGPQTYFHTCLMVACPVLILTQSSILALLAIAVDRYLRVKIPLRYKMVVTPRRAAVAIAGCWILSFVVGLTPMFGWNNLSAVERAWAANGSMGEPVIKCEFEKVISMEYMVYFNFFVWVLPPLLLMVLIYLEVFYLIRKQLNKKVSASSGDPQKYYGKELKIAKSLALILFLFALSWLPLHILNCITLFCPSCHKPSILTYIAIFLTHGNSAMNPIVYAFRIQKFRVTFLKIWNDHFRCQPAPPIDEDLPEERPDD

[4] = biological target: Dnmt3a-Dnmt3L (Mus musculus, UniProt O88508); type: biochemical
[5] = biological target: PRMT1 (Homo sapiens, UniProt Q99873); assay: Selectivity assay, PRMT1; type: biochemical; details: compound 10 μM, 3H-SAM 1 μM
Sequence of PRMT1 (Q99873 whole entry): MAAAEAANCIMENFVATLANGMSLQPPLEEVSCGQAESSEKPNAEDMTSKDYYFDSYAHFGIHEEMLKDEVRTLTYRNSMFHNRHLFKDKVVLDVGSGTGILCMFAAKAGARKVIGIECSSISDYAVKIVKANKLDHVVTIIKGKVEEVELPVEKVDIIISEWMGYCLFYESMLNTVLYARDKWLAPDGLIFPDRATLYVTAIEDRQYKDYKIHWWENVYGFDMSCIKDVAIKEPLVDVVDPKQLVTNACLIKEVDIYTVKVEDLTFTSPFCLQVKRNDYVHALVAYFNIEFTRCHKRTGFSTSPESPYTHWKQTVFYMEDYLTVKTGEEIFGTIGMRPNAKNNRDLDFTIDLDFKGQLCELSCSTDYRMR

[6] = biological target: T3, CamA (Clostridioides difficile, UniProt Q183J3); assay: Isothermal titration calorimetry; type: binding; details: from that of compound 37
T3 sequence (Q183J3 1-577): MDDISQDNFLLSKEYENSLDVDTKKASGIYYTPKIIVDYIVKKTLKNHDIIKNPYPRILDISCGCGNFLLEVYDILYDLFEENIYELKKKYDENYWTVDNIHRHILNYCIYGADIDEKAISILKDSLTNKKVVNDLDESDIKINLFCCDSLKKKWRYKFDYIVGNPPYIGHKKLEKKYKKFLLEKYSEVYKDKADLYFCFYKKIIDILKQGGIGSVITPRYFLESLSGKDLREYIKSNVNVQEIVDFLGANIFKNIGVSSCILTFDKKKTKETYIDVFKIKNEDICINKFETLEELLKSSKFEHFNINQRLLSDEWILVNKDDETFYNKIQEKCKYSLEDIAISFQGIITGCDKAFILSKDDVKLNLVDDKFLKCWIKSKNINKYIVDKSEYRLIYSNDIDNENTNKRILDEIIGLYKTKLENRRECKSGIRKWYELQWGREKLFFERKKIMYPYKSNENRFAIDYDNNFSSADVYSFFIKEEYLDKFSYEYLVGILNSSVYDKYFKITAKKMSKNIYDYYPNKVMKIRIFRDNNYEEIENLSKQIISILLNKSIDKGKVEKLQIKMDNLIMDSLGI

[7] = biological target: T4, Dam (Escherichia coli, UniProt P0AEE8); type: biochemical
T4 sequence (P0AEE8 1-278): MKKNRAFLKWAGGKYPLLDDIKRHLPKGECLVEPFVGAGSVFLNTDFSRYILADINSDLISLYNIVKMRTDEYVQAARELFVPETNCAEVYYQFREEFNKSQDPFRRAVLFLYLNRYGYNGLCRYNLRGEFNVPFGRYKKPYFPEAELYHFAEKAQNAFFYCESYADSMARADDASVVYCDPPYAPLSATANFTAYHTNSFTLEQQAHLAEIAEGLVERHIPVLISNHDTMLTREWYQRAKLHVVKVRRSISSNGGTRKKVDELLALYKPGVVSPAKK

[8] = biological target: MettL5-Trm112 (Homo sapiens, UniProt Q9NRN9); type: biochemical
[9] = biological target: PCIF1 (Homo sapiens, UniProt Q9H4Z3); type: biochemical
[10] = biological target: DOT1L (Homo sapiens, UniProt Q8TEK3); assay: Selectivity assay, DOT1L; type: biochemical; details: compound 10 μM, 3H-SAM 1 μM
Sequence of DOT1L (Q8TEK3 whole entry): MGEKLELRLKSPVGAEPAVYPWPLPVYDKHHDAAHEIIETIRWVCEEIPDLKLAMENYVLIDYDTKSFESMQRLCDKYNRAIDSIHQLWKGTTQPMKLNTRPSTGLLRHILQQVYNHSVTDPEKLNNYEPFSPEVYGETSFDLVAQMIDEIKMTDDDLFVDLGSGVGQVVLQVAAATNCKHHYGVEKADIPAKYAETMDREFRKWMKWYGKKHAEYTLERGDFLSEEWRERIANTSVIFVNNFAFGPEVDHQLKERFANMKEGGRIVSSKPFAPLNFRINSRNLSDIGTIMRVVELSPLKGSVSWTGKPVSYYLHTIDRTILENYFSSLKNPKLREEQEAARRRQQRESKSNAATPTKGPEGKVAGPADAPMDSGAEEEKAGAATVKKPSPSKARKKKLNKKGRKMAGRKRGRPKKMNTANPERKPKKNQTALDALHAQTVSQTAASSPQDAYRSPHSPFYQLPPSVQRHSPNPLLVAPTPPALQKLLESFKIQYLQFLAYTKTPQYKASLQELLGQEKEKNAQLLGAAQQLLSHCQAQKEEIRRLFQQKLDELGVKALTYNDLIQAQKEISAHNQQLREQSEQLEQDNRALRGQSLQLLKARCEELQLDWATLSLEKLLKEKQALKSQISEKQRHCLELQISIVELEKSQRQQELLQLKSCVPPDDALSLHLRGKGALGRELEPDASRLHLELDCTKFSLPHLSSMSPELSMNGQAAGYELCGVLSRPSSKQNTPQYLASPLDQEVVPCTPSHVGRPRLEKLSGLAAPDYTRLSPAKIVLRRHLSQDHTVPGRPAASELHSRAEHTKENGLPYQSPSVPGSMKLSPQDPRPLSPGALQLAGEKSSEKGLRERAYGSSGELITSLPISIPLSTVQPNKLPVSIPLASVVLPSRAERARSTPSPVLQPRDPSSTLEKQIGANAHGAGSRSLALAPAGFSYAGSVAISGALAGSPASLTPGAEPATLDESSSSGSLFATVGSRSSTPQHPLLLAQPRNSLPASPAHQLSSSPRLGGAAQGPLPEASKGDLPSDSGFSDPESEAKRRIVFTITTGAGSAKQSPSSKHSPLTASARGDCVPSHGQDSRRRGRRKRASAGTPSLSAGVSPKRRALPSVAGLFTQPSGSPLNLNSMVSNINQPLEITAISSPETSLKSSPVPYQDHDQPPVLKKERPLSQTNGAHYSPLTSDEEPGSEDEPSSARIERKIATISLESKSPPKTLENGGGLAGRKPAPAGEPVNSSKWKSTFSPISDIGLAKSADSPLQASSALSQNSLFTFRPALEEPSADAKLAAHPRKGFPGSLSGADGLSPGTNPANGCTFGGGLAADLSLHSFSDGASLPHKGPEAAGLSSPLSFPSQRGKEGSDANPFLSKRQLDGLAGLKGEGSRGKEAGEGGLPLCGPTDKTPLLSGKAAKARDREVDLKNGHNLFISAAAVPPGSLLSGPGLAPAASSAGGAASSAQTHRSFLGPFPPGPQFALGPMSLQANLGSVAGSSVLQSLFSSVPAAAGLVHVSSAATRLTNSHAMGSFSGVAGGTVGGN

[11] = biological target: CcrM (Caulobacter vibrioides, UniProt P0CAW2); type: biochemical, Caulobacter crescentus
[12] = biological target: T5, MettL16 (Homo sapiens, UniProt Q86W50); assay: Selectivity assay, MettL16; type: biochemical; details: [I] = 10 μM, [SAM] = 160 μM or 30 μM
T5 sequence (Q86W50 1-562): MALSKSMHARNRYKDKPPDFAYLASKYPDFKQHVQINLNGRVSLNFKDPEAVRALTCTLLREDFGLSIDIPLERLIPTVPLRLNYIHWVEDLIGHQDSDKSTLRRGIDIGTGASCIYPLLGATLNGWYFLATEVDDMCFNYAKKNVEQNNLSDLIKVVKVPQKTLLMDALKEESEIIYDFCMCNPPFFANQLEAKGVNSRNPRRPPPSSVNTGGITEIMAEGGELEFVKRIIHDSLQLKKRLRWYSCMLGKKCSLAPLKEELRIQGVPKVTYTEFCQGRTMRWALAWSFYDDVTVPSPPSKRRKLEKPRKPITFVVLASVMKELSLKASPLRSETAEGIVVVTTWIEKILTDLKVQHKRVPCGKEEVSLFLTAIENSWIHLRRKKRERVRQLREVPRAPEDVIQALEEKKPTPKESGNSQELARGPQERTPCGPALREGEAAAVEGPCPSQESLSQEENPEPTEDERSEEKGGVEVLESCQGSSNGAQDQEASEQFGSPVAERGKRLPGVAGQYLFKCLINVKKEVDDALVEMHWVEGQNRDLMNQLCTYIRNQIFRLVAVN

[13] = biological target: EZH2 complex (Homo sapiens, UniProt Q15910); assay: Selectivity assay, EZH2 complex; type: biochemical; details: compound 10 μM, 3H-SAM 1 μM
Sequence of EZH2 complex (Q15910 whole entry): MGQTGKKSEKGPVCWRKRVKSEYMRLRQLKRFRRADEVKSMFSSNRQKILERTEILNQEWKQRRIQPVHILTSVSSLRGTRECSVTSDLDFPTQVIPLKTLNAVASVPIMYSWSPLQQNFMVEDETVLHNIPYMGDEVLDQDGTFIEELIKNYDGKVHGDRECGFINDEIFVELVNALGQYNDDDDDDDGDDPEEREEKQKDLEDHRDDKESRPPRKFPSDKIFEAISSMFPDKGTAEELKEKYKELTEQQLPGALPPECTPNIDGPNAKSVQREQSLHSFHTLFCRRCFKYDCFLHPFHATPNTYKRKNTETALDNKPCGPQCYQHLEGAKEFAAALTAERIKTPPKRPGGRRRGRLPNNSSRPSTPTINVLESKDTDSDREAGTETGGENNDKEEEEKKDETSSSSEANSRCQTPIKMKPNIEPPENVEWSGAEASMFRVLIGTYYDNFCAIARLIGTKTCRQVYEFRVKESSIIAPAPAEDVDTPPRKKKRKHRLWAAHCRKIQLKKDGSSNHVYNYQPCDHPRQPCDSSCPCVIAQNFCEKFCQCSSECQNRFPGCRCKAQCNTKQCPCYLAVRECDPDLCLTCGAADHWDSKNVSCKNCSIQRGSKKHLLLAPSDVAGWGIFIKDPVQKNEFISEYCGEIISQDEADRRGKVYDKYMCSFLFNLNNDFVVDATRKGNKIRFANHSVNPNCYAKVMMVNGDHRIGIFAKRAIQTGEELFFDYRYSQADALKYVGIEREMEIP
Sequence of EZH2 complex (O75530 whole entry partner): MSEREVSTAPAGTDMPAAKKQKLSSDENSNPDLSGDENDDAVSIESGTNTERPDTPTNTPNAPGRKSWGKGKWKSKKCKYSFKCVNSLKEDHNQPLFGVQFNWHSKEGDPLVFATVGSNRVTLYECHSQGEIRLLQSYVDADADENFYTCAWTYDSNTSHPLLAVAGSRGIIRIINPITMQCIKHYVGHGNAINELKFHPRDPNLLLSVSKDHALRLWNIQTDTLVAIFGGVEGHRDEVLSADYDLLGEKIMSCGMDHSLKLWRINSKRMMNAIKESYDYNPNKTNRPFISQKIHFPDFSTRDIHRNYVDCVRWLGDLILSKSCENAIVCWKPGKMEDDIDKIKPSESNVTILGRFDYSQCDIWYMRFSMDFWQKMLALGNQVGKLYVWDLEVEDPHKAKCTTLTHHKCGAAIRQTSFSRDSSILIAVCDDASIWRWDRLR
Sequence of EZH2 complex (Q15022 whole entry partner): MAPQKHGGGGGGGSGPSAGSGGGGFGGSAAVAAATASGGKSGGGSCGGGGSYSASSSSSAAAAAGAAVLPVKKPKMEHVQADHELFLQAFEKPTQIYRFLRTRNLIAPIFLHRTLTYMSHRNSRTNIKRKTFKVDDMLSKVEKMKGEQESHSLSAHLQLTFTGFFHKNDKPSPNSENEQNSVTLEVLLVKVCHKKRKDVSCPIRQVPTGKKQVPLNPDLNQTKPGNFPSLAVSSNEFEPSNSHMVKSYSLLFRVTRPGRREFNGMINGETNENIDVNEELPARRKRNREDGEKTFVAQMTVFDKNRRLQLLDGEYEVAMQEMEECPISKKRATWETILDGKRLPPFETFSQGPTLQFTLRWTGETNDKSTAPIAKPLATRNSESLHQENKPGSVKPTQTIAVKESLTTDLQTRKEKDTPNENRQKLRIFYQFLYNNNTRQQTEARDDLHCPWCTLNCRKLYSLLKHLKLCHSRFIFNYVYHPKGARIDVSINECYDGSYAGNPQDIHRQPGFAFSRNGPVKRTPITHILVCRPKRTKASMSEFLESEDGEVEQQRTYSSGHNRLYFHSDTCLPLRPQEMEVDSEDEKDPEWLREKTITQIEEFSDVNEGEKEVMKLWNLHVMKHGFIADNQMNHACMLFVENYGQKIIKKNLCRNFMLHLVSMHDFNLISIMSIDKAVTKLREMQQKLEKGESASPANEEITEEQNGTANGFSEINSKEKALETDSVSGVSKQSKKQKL
Sequence of EZH2 complex (Q09028 whole entry partner): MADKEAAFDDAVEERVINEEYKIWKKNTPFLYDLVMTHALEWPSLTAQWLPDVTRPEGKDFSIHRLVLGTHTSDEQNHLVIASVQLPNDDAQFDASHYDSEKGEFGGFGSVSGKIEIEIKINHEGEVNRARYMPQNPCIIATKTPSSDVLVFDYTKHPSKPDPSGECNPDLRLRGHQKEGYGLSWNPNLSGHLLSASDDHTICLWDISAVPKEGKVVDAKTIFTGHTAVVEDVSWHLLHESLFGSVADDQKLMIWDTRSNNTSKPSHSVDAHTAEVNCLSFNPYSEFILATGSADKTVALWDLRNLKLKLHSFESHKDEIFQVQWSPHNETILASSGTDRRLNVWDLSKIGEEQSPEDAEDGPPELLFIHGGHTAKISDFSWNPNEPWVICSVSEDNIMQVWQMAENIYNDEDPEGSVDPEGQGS
Sequence of EZH2 complex (Q6ZN18 whole entry partner): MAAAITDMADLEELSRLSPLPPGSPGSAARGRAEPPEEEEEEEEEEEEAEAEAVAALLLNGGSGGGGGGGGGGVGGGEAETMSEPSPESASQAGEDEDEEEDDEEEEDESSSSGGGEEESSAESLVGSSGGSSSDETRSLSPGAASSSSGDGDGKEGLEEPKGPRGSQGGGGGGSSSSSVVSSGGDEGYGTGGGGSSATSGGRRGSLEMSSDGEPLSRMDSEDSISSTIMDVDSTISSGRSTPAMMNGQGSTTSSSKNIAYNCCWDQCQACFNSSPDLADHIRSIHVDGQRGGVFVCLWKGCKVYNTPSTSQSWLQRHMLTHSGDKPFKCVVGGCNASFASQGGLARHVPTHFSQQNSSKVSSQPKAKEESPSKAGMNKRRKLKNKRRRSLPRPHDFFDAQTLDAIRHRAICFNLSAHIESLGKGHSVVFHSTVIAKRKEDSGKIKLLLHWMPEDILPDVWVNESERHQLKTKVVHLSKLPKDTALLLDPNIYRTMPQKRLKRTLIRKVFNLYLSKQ

[14] = biological target: MettL3-MettL14 (Homo sapiens, UniProt Q86U44); assay: Selectivity assay, MettL3-MettL14; type: biochemical; details: [I] = 10 μM, [SAM] = 20 μM, 5 mM NaCl, or CamA conditions

SMILES | inhibition of DNMT1 [1] | inhibition of G9a [2] | inhibition of control radioligand specific binding, A1AR [3] | inhibition of Dnmt3a-Dnmt3L [4] | inhibition of PRMT1 [5] | KD improved, fold [6] [×] | inhibition of Dam [7] | inhibition of MettL5-Trm112 [8] | inhibition of PCIF1 [9] | inhibition of DOT1L [10] | inhibition of CcrM [11] | inhibition of MettL16 [12] | inhibition of EZH2 complex [13] | inhibition of MettL3-MettL14 [14]
CC(C)(C)OC(=O)N1CCC(CCNc2ncnc3c2ncn3[C@@H]2O[C@H](CO)[C@@H](O)[C@H]2O)CC1 [Compound 38, tert-Butyl-4-(2-((9-((2R,3R,4S,5R)-3,4-dihydroxy-5-(hydroxymethyl)tetrahydrofuran-2-yl)-9H-purin-6-yl)amino)ethyl)piperidine-1-carboxylate] | none of them showed any significant inhibition | none of them showed any significant inhibition | minimal inhibition of specific binding | none of them showed any significant inhibition | none of them showed any significant inhibition | ~8 | none of them showed any significant inhibition | none of them showed any significant inhibition | none of them showed any significant inhibition | none of them showed any significant inhibition | none of them showed any significant inhibition | none of them showed any significant inhibition | none of them showed any significant inhibition | none of them showed any significant inhibition
OC[C@H]1O[C@@H](n2cnc3c(NC4CCCC4)ncnc32)[C@H](O)[C@@H]1O [N^6-cyclopentyladenosine, reference compound] |  |  | completely abolished radioligand binding |  |  |  |  |  |  |  |  |  |  | 
Nc1ncnc2c1ncn2[C@@H]1O[C@H](CSCC[C@H](N)C(=O)O)[C@@H](O)[C@H]1O [SAH, S-adenosyl-L-homocysteine, reference compound] |  | exhibited measurable inhibition |  |  | exhibited measurable inhibition |  |  |  |  | exhibited measurable inhibition |  |  |  | 
